Experimental data published in US20230107642A1 (Erasca, Inc., priority 2020, published 2023).

Assay: Determination of total drug concentration in rat brain (BBB penetration)
Format: in vivo
Conditions: male SD rat, 2 mg/kg IV infusion for 4 hours, brain collected at end of 4 hours
Method: BB. Example 9: Determination of Total Drug Concentration in Rat Brain
In Vivo Experimental Procedures
Infuse male SD rat at 2 mg/kg dose for 4 hours through IV administration route. Collect brain tissues at the end of 4 hours.
Sample Preparation Procedures
Dilute brain tissue by adding homogenization solvent (1:4, w/v). Homogenize diluted brain tissue samples. Extract analyte by adding organic solvent (1:4, v/v) with spiked internal standard. Vortex and centrifuge the samples. Remove supernatant and dilute with HPLC compatible solvent (1:3, v/v).
Inject diluted extract into LC-MS/MS system using reversed phase high performance liquid chromatography coupled with electrospray ionization and selected reaction monitoring. Determine the total drug concentration in brain samples by quantitating against the standard curve prepared using the same matrix.
The following data provides blood brain barrier (BBB) penetration activity for a selection of inventive compounds where were directly compared to sotorasib and adagrasib (concentration in brain measured in ng/g).
Compounds that were measured as having a total concentration in the brain of at least 60 ng/g are indicated as “+”.
In the case of `C=CC(=O)N1[C@H](C)CN(c2nc(=O)n3c4c(c(-c5ccc(F)cc5)c(C(F)(F)F)cc24)SC[C@@H](OCC2CC2)C3)C[C@@H]1C` [Example 13-48], the BBB activity is reported as “− (Compounds that did not meet this threshold are indicated as “−”)”.
In the case of `C=CC(=O)N1[C@H](C)CN(c2nc(=O)n3c4c(c(-c5cc(Cl)c(F)cc5F)c(C(F)(F)F)cc24)SC[C@@H]3COCOC)C[C@@H]1C` [Example 13-50], the BBB activity is reported as “− (Compounds that did not meet this threshold are indicated as “−”)”.
With `C=CC(=O)N1C[C@H](C)N(c2nc(=O)n3c4c(c(-c5ccc(F)cc5F)c(C(F)(F)F)cc24)SCC2(COC2)C3)C[C@H]1C` [Example 13-51] the BBB activity was “− (Compounds that did not meet this threshold are indicated as “−”)”.
For `C=CC(=O)N1C[C@H](C)N(c2nc(=O)n3c4c(c(-c5ccc(F)cc5)c(Cl)cc24)OCC3CN(C)C)C[C@H]1C` (stereo partly drawn) [Example 13-53], the BBB activity was “− (Compounds that did not meet this threshold are indicated as “−”)”.
With `[2H]C1([2H])N(C(=O)C=C)C([2H])([2H])C([2H])([2H])N(c2nc(=O)n3c4c(c(-c5cc(Cl)c(F)cc5F)c(C(F)(F)F)cc24)SCC2(COC2)C3)C1([2H])[2H]` [Example 13-54] the BBB activity was “− (Compounds that did not meet this threshold are indicated as “−”)”.
In the case of `C=CC(=O)N1[C@H](C)CN(c2nc(=O)n3c4c(c(-c5ccc(F)cc5)c(C(F)(F)F)cc24)SC[C@@H](OCC)C3)C[C@@H]1C` [Example 13-55], the BBB activity is reported as “− (Compounds that did not meet this threshold are indicated as “−”)”.
In the case of `C=CC(=O)N1C[C@H](C)N(c2nc(=O)n3c4c(c(-c5cc(Cl)c(F)cc5F)c(Cl)cc24)SC[C@@H]3CN2CCN(CC(F)F)CC2)C[C@H]1C` [Example 13-56], the BBB activity is reported as “− (Compounds that did not meet this threshold are indicated as “−”)”.
In the case of `C=CC(=O)N1C[C@H](C)N(c2nc(=O)n3c4c(c(-c5cc(F)c(F)cc5F)c(C(F)(F)F)cc24)SC[C@@H]3CN2CCN(CC(F)F)CC2)C[C@H]1C` [Example 13-57], the BBB activity is reported as “− (Compounds that did not meet this threshold are indicated as “−”)”.
For `C=CC(=O)N1C[C@H](C)N(c2nc(=O)n3c4c(c(-c5ccc(F)cc5F)c(Cl)cc24)OC[C@H]3CC2CCN(CC(F)F)CC2)C[C@H]1C` [Example 13-59], the BBB activity was “− (Compounds that did not meet this threshold are indicated as “−”)”.
For `C=CC(=O)N1CCN(c2nc(=O)n3c4c(c(-c5ccc(F)cc5F)c(Cl)cc24)SCCC3)[C@@H](C)C1` [Example 13-61], the BBB activity was “− (Compounds that did not meet this threshold are indicated as “−”)”.
In the case of `C=CC(=O)N1[C@H](C)CN(c2nc(=O)n3c4c(c(-c5cc(Cl)c(F)cc5F)c(C(F)(F)F)cc24)CC[C@@H]3CC2CCC3(CC2)COC3)C[C@@H]1C` [Example 13-63], the BBB activity is reported as “− (Compounds that did not meet this threshold are indicated as “−”)”.
For `C=CC(=O)N1[C@H](C)CN(c2nc(=O)n3c4c(c(-c5ccc(F)cc5)c(C(F)(F)F)cc24)SC[C@@H](OCCF)C3)C[C@@H]1C` [Example 13-64], the BBB activity was “− (Compounds that did not meet this threshold are indicated as “−”)”.
With `C=CC(=O)N1[C@H](C)CN(c2nc(=O)n3c4c(c(-c5ccc(F)cc5)c(C(F)(F)F)cc24)SC[C@@H](COC)C3)C[C@@H]1C` [Example 13-65] the BBB activity was “− (Compounds that did not meet this threshold are indicated as “−”)”.
In the case of `C=CC(=O)C1[C@H](C)CN(c2nc(=O)n3c4c(c(-c5ccc(F)cc5)c(C(F)(F)F)cc24)SC[C@@H](OC)C3)C[C@@H]1C` (stereo partly drawn) [Example 13-66], the BBB activity is reported as “− (Compounds that did not meet this threshold are indicated as “−”)”.
For `C=CC(=O)N1CCN(c2nc(=O)n3c4c(c(-c5c(F)cc(F)c6ccccc56)c(Cl)cc24)SCC3)[C@@H](C)C1` [Example 13-67], the BBB activity was “− (Compounds that did not meet this threshold are indicated as “−”)”.
For `C=CC(=O)N1[C@H](C)CN(c2nc(=O)n3c4c(c(-c5ccc(F)c6sccc56)c(C(F)(F)F)cc24)SC[C@@H]3COC)C[C@@H]1C` [Example 13-68], the BBB activity was “− (Compounds that did not meet this threshold are indicated as “−”)”.
With `C=CC(=O)N1[C@H](C)CN(c2nc(=O)n3c4c(c(-c5ccc(F)cc5)c(Cl)cc24)SC[C@@H](OC)C3)C[C@@H]1C` [Example 13-69] the BBB activity was “− (Compounds that did not meet this threshold are indicated as “−”)”.
For `C=CC(=O)N1[C@H](C)CN(c2nc(=O)n3c4c(c(-c5ccc(F)cc5F)c(C(F)(F)F)cc24)SC[C@@H](OC)C3)C[C@@H]1C` [Example 13-72], the BBB activity was “− (Compounds that did not meet this threshold are indicated as “−”)”.
For `C=CC(=O)N1C[C@H](C)N(c2nc(=O)n3c4c(c(-c5cc(Cl)c(F)cc5F)c(C(F)(F)F)cc24)CC[C@@H]3CN2CCC3(CC2)COC3)C[C@H]1C` [Example 13-74], the BBB activity was “− (Compounds that did not meet this threshold are indicated as “−”)”.
For `C=C(F)C(=O)N1CCN(c2nc(OC[C@H]3CCCN3C)nc3c2CCN(c2cccc4cccc(Cl)c24)C3)C[C@@H]1CC#N` [Example 13-75], the BBB activity was “− (Compounds that did not meet this threshold are indicated as “−”)”.
With `C=CC(=O)N1C[C@H](C)N(c2nc(=O)n3c4c(c(-c5ccc(F)cc5F)c(Cl)cc24)OC[C@H]3CCCN2C[C@H]3C[C@@H]2CO3)C[C@H]1C` [Example 13-76] the BBB activity was “− (Compounds that did not meet this threshold are indicated as “−”)”.
With `C=CC(=O)N1[C@H](C)CN(c2nc(=O)n3c4c(c(-c5ccc(F)c(Cl)c5)c(C(F)(F)F)cc24)SC[C@@H](OCOC)C3)C[C@@H]1C` [Example 13-78] the BBB activity was “− (Compounds that did not meet this threshold are indicated as “−”)”.
For `C=CC(=O)N1C[C@H](C)N(c2nc(=O)n3c4c(c(-c5ccc(F)cc5)c(C(F)(F)F)cc24)SCC2(COC2)C3)C[C@H]1C` [Example 13-79], the BBB activity was “− (Compounds that did not meet this threshold are indicated as “−”)”.
In the case of `C=CC(=O)N1C[C@H](C)N(c2nc(=O)n3c4c(c(-c5ccc(F)cc5F)c(Cl)cc24)OC[C@H]3CCCN2CCC(F)(F)C2)C[C@H]1C` [Example 13-80], the BBB activity is reported as “− (Compounds that did not meet this threshold are indicated as “−”)”.
In the case of `C=CC(=O)N1CCN(c2nc(=O)n3c4c(c(-c5cc(Cl)c(F)cc5F)c(Cl)cc24)OC[C@@H]3CN2CCN(CC(F)F)CC2)[C@@H](C)C1` [Example 13-81], the BBB activity is reported as “− (Compounds that did not meet this threshold are indicated as “−”)”.
In the case of `C=CC(=O)N1[C@H](C)CN(c2nc(=O)n3c4c(c(-c5ccc(F)c(Cl)c5)c(C(F)(F)F)cc24)SC[C@@H](OCC)C3)C[C@@H]1C` [Example 13-82], the BBB activity is reported as “− (Compounds that did not meet this threshold are indicated as “−”)”.
For `C=CC(=O)N1[C@H](C)CN(c2nc(=O)n3c4c(c(-c5ccc(F)cc5)c(C(F)(F)F)cc24)SC[C@@H](OCOC)C3)C[C@@H]1C` [Example 13-83], the BBB activity was “− (Compounds that did not meet this threshold are indicated as “−”)”.
With `C=CC(=O)N1[C@H](C)CN(c2nc(=O)n3c4c(c(-c5cc(Cl)c(F)cc5F)c(C(F)(F)F)cc24)SC[C@@H](N2CCOCC2)C3)C[C@@H]1C` [Example 13-84] the BBB activity was “− (Compounds that did not meet this threshold are indicated as “−”)”.
In the case of `C=CC(=O)N1C[C@H](C)N(c2nc(=O)n3c4c(c(-c5ccc(F)cc5F)c(Cl)cc24)OC[C@H]3CC2CCN(C)CC2)C[C@H]1C` [Example 13-85], the BBB activity is reported as “− (Compounds that did not meet this threshold are indicated as “−”)”.
For `C=CC(=O)N1[C@H](C)CN(c2nc(=O)n3c4c(c(-c5cc(Cl)c(F)cc5F)c(C(F)(F)F)cc24)SC[C@@H]3CC2CCN(CC)CC2)C[C@@H]1C` [Example 13-86], the BBB activity was “− (Compounds that did not meet this threshold are indicated as “−”)”.
In the case of `C=CC(=O)N1[C@H](C)CN(c2nc(=O)n3c4c(c(-c5ccc(F)cc5F)c(C(F)(F)F)cc24)SCC2(COC2)C3)C[C@@H]1C` [Example 13-87], the BBB activity is reported as “− (Compounds that did not meet this threshold are indicated as “−”)”.
In the case of `C=CC(=O)N1CCN(c2nc(=O)n3c4c(c(-c5ccc(F)cc5F)c(C(F)(F)F)cc24)SC[C@@H]3CC2CCOCC2)[C@@H](C)C1` [Example 13-88], the BBB activity is reported as “− (Compounds that did not meet this threshold are indicated as “−”)”.
In the case of `C=CC(=O)N1[C@H](C)CN(c2nc(=O)n3c4c(c(-c5ccc(F)cc5)c(C(F)(F)F)cc24)SCC(COC)(COC)C3)C[C@@H]1C` [Example 13-89], the BBB activity is reported as “− (Compounds that did not meet this threshold are indicated as “−”)”.
In the case of `C=CC(=O)N1[C@H](C)CN(c2nc(=O)n3c4c(c(-c5cc(Cl)c(F)cc5F)c(C(F)(F)F)cc24)SC[C@@H](Nc2ncccn2)C3)C[C@@H]1C` [Example 13-90], the BBB activity is reported as “− (Compounds that did not meet this threshold are indicated as “−”)”.
With `C=CC(=O)N1C[C@H](C)N(c2nc(=O)n3c4c(c(-c5ccc(F)cc5F)c(C(F)(F)F)cc24)OC[C@@H]3COCCOC)C[C@H]1C` [Example 13-91] the BBB activity was “− (Compounds that did not meet this threshold are indicated as “−”)”.
For `C=CC(=O)N1CCN(c2nc(=O)n(-c3c(C)ccnc3C(C)C)c3nc(-c4c(O)cccc4F)c(F)cc23)[C@@H](C)C1` [Example 13-92], the BBB activity was “− (Compounds that did not meet this threshold are indicated as “−”)”.
